According to patent publication US5208152A, “Catalysts of Diels-Alder reactions, methods and catalysts therefor” (The Scripps Research Institute, priority 1992, dated 1993):

System: monoclonal catalytic antibody 1E9 (reductively methylated), secreted by hybridoma 1E9, ATCC HB 10261
Assay: Antibody-catalyzed Diels-Alder [4+2] cycloaddition/fragmentation reaction between TCTD and N-ethylmaleimide
Type: biochemical, mouse
Text: Because TCTD reacts with lysine residues on the surface of the immunoglobulins, it was necessary to reduce the nucleophilicity of the amino groups by exhaustive reductive methylation [Jentoft et al., J. Biol. Chem., 254:4359 (1979)]. […] Chemical modification of immunoglobulins in this way is likely to be of general value, as it will permit reactive molecules like epoxides, Michael acceptors or other alkylating agents to be employed as substrates for catalytic antibodies.
The methylated antibodies were assayed at 25 degrees C. for their ability to promote the Diels-Alder [4+2] cycloaddition/fragmentation reaction between TCTD and N-ethylmaleimide (NEM) in aqueous buffer (20 mM MES, 100 mM NaCl, pH 6.0) containing 10 percent acetonitrile. Cycloadditions were followed by monitoring the disappearance of TCTD at 330 nm or by analytical reverse-phase HPLC. HPLC kinetic assays were performed on a Vydac C-18 218-TP-510 reverse phase column (10 mm×25 cm, 2 mL/min, gradient elution from 100 percent H2 O to 60:40 CH3 CN:H2 O in 20 minutes, then 5 minutes at the latter solvent composition) using acetophenone as an internal standard.

Row | Structure (SMILES) | inhibition of the catalyzed reaction (preincubation of the antibody with an equimolar amount of the inhibitor) | apparent kcat (NEM concentration varied, 0.61 mM TCTD held constant, 25 degrees C, 20 mM MES, 100 mM NaCl, pH 6.0, 10 percent acetonitrile) [s⁻¹] | Km (NEM concentration varied, 0.61 mM TCTD held constant, 25 degrees C, 20 mM MES, 100 mM NaCl, pH 6.0, 10 percent acetonitrile, read-out: apparent (Km)NEM) [mM]
1 | CCN1C(=O)C2C(C1=O)C1(Cl)C(Cl)=C(Cl)C2(Cl)C1(Cl)Cl (stereo not drawn) [Compound 3] | stopped the oatalyzed reaction completely |  | 
2 | CCN1C(=O)C=CC1=O [NEM, N-ethylmaleimide] |  | 0.0717 ± 0.005 | 21 ± 4
